According to ChEMBL document CHEMBL1201862, “PubChem BioAssay data set” (2004):
Calls of active or inactive are those of the source.

Experiments:
[1] = target: T1, Estrogen receptor beta (Homo sapiens, UniProt Q92731);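 also: recombinant ER-beta bound to coactivator SRC1 peptide in presence of estradiol agonist; inhibitors block coactivator peptide binding and lower the FRET signal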
[2] = target: T1, Estrogen receptor beta; assay: ERβ–SRC-3 coactivator interaction inhibitors, confirmation, orthogonal assay, biochemical, ELISA, streptavidin-HRP readout (AID 1060)
[3] = target: Neuropeptides B/W receptor type 1 (Homo sapiens, UniProt P48145); assay: Fluorescence-based dose response cell-based high throughput screening assay to identify antagonists of the G-protein coupled receptor 7 (GPR7). [Related pubchem assays: 1952 (Screening assay (GPR7 antagonists).), 1880 (Summary AID.)]; assay type: functional
[4] = target: Melanin-concentrating hormone receptor 1 (Homo sapiens, UniProt Q99705); assay: Fluorescence-based counterscreen for antagonists of the G-protein coupled receptor 7 (GPR7): cell-based high throughput dose response assay to identify antagonists of the melanin-concentrating hormone receptor 1 (MCHR1).; assay type: functional
[5] = tested on: Streptococcus sp. 'group A'; assay: growth inhibition of control SK(-) GAS strain, dose response, counter-screen for streptokinase expression inhibitor project, luminescence, kanamycin, BacTiterGlo, confirmation (AID 1900); assay type: functional, organism-based
[6] = cells; assay type: functional, cell-based
[7] = target: T2, Streptokinase A (Streptococcus pyogenes serotype M1, UniProt P10520); assay: S. pyogenes streptokinase expression inhibitors, potency, dose response, plasminogen activation absorbance, OD405 (AID 1914); assay type: functional, Streptococcus pyogenes M1 GAS;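 also: secreted streptokinase activity via plasminogen activation per viability signal from cell pellet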
T2 sequence (P10520 whole entry): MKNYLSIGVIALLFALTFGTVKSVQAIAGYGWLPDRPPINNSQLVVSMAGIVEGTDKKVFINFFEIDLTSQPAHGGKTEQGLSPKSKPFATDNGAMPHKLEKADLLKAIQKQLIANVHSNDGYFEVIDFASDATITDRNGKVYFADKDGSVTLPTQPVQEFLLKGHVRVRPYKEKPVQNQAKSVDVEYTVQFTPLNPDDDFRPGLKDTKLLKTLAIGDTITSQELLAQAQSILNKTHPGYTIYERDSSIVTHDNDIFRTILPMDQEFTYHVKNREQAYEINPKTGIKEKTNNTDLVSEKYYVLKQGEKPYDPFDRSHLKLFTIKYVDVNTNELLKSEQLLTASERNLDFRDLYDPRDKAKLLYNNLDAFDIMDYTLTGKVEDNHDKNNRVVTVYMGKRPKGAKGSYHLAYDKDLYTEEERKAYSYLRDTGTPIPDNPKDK

[8] = Luminescence-based counterscreen assay for KLF5 inhibitors: dose response cell-based high throughput screening assay to identify cytotoxic compounds using the IEC-6 intestinal epithelial cell line. [Related pubchem assays: 1700 (Primary screen.), 1834 (Confirmation screen.), 1858 (Summary AID.), 1905 (Counterscreen.)]; assay type: functional
[9] = cells; assay type: functional, cell-based; remark: listed apart in the source
[10] = tested on: Streptococcus; assay: Group A Streptococcus viability loss, dose response, counter-screen for streptokinase expression inhibitor project, luminescence, BacTiterGlo (AID 1915); assay type: functional, organism-based;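 also: potency for reduction of bacterial viability or growth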
[11] = THP-1 cell cytotoxicity, dose response, cytotoxicity control for non-replicating M. tuberculosis project (AID 489025); assay type: functional
[12] = HepG2 cell cytotoxicity, dose response, cytotoxicity control for non-replicating M. tuberculosis project (AID 489018); assay type: functional; conditions: Mycobacterium tuberculosis
[13] = Vero E6 cell cytotoxicity, dose response, cytotoxicity control for non-replicating M. tuberculosis project, secondary assay (AID 492998); assay type: functional, VeroE6; conditions: Vero C1008
[14] = cells; assay type: functional
[15] = tested on: INS1; assay: beta cell apoptosis inhibitors, cytokine rescue, dose response, luminescence, retest (AID 449756); assay type: functional, cell-based; conditions: Rattus norvegicus;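 also: cell death triggered by IL-1 beta plus TNF-alpha plus IFN-gamma mixture; protective hits raise ATP signal compared with cytokine alone wells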
[16] = target: Large T antigen (Simian virus 40, UniProt P03070); assay: A confirmatory biochemical assay using the ADP-Hunter methodology, purified TAg, and ATP to quantify activity of synthesized compounds that inhibit the ATPase activity of Tag (3). [Related pubchem assays (depositor defined):AID1903, AID1909, AID2102, AID2501, AID2615, AID2775, AID435001, AID449729]; parameters: species or system Betapolyomavirus macacae
[17] = target: Vasopressin V1a receptor (Homo sapiens, UniProt P37288); assay: Counterscreen for Oxytocin Receptor (OXTR) agonists: Fluorescence-based cell-based high throughput dose response assay to identify agonists of the vasopressin 1 receptor (V1R). [Related pubchem assays: 2435 (Primary screen (OXTR agonists in singlicate)), 434991 (Counterscreen (V1R agonists in triplicate)), 2482 (Summary (OXTR agonists)) …; assay type: functional
[18] = target: Oxytocin receptor (Homo sapiens, UniProt P30559); assay: Fluorescence-based cell-based high throughput dose response assay for agonists of the Oxytocin Receptor (OXTR). [Related pubchem assays: 2435 (Primary screen (OXTR agonists in singlicate)), 434991 (Counterscreen (V1R agonists in triplicate)), 2482 (Summary (OXTR agonists)), 434963 (Confirmation screen (OXTR agonists in triplicate))]; assay type: functional
[19] = target: NADPH oxidase 1 (Homo sapiens, UniProt Q9Y5S8); assay type: functional, cell-based;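 also: Cell-based assay with luminescence read-out, IC50 derived from inhibitor dose-response curves; intracellular ROS from endogenous NOX1 in intact HT29 colon cancer cells; potency of inhibitors that lower the ROS luminescence signal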
[20] = target: Protein Rev (Human immunodeficiency virus type 1 group M subtype B (isolate WMJ22)(HIV-1), UniProt P05866); assay: HIV-1 Rev-RRE RNA binding disruptors, dose response, biochemical, protein-RNA interaction (AID 842); parameters: species or system Human immunodeficiency virus 1
[21] = tested on: Staphylococcus aureus; assay: Inhibitors of Bacterial Quorum Sensing Structure Activity Relationship (SAR) Analysis: Dose Response Assay. [Related pubchem assays: 700, 527 ]; assay type: functional, organism-based
[22] = target: Tumor necrosis factor (Homo sapiens, UniProt P01375); assay: TNFa-triggered NF-kB activation inhibitors, SAR follow-up, cell-based, revised (AID 2337); assay type: functional
[23] = target: Nucleotide-binding oligomerization domain-containing protein 1 (Homo sapiens, UniProt Q9Y239); assay: NOD1 signaling inhibitors, SAR follow-up, revised (AID 2333); assay type: functional
[24] = target: Nucleotide-binding oligomerization domain-containing protein 2 (Homo sapiens, UniProt Q9HC29); assay: PubChem AID 2334; assay type: functional
[25] = tested on: HEK293; assay: cells; conditions: Homo sapiens;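 also: cells exposed to compound for 14 hours overnight before viability readout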
[26] = target: Cytochrome P450 2D6 (Homo sapiens, UniProt P10635); assay: qHTS Assay for Inhibitors and Substrates of Cytochrome P450 2D6. [Related pubchem assays: 410 ]; assay type: ADME; conditions: read-out: Potency
[27] = target: Cytochrome P450 2C9 (Homo sapiens, UniProt P11712); conditions: Potency
Cytochrome P450 2C9, sequence (P11712 whole entry): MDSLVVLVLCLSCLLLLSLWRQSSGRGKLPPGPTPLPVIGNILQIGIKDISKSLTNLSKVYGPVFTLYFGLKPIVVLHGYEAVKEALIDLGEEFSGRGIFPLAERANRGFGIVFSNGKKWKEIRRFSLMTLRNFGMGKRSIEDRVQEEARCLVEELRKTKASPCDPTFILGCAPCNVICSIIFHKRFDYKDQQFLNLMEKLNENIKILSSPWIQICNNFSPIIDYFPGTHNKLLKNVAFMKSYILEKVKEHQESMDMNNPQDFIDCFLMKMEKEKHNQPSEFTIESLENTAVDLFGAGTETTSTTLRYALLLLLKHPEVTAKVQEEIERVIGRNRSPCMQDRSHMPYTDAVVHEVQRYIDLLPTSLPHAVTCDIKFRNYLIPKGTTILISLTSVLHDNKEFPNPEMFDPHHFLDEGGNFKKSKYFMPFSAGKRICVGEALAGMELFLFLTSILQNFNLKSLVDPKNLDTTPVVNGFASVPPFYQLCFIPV

T1 sequence (Q92731 whole entry): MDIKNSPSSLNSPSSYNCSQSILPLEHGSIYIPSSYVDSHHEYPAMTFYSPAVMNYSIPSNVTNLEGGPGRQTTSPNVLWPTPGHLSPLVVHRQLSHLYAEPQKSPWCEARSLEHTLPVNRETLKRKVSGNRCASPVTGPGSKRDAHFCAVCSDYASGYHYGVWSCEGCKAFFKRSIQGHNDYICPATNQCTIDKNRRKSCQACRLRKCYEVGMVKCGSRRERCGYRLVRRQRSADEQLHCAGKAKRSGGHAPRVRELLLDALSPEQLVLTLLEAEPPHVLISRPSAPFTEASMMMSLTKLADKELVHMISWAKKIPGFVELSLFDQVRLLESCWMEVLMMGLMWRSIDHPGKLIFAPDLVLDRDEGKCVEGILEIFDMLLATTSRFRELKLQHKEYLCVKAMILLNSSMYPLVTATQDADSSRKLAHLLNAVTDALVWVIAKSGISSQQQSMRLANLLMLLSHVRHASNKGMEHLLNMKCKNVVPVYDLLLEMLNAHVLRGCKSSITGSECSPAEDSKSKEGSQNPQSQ
Melanin-concentrating hormone receptor 1, sequence (Q99705 whole entry): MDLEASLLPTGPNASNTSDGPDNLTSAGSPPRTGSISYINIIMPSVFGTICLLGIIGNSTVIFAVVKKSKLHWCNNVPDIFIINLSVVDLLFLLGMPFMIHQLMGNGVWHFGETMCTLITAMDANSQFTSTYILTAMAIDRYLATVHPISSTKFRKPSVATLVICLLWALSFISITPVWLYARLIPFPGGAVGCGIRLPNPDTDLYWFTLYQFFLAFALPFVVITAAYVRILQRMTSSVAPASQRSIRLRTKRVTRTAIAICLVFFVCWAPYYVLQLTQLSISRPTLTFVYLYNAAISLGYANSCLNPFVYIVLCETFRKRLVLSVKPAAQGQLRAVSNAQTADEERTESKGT
Tumor necrosis factor, sequence (P01375 whole entry, the tested form may be a part): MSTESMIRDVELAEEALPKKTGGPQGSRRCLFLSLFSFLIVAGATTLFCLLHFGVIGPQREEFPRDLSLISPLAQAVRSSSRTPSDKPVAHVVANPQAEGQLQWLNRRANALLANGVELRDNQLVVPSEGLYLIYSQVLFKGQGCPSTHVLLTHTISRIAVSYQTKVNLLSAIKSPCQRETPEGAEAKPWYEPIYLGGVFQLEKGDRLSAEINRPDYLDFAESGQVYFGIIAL
Protein Rev, sequence (P05866 whole entry): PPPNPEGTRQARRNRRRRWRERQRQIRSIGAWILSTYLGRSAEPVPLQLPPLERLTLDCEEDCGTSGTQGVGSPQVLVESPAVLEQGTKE
Vasopressin V1a receptor, sequence (P37288 whole entry): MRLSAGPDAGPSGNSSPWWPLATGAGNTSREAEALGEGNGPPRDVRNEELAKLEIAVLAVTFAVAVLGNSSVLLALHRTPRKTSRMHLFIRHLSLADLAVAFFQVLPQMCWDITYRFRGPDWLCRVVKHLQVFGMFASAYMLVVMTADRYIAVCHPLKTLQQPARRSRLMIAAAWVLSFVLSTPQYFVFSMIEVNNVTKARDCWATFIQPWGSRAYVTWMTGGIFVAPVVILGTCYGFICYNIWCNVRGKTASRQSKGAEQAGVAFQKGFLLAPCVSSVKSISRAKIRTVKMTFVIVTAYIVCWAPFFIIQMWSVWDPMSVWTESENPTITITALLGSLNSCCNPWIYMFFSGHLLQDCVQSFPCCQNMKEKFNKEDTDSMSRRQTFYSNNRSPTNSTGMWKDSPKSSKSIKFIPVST
Cytochrome P450 2D6, sequence (P10635 whole entry): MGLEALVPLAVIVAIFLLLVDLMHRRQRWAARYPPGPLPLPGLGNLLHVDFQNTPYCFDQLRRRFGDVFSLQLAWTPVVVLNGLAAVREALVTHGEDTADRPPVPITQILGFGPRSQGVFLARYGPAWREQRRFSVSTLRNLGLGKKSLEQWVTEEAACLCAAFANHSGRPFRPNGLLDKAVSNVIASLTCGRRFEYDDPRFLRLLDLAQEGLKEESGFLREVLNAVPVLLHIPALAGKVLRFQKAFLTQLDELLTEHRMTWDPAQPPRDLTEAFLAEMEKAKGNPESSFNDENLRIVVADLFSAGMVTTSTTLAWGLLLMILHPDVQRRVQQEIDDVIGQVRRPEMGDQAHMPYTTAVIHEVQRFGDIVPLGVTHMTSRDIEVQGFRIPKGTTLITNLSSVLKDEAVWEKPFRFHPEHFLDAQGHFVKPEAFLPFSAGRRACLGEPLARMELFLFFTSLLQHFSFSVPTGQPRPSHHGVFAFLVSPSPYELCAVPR
NADPH oxidase 1, sequence (Q9Y5S8 whole entry): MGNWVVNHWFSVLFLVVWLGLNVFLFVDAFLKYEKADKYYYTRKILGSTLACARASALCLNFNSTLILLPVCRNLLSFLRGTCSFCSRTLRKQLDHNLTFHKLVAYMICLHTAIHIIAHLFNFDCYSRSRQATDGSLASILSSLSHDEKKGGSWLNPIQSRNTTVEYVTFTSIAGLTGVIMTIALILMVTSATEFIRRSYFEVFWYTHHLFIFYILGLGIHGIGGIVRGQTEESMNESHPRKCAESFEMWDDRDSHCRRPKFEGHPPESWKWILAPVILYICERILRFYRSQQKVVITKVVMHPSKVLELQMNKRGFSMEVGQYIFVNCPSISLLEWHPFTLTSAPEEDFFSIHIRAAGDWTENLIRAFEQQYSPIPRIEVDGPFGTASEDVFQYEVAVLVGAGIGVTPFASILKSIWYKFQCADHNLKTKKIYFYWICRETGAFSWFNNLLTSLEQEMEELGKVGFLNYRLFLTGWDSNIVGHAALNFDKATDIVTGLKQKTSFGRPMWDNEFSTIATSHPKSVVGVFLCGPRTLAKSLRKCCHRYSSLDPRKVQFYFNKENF
Oxytocin receptor, sequence (P30559 whole entry): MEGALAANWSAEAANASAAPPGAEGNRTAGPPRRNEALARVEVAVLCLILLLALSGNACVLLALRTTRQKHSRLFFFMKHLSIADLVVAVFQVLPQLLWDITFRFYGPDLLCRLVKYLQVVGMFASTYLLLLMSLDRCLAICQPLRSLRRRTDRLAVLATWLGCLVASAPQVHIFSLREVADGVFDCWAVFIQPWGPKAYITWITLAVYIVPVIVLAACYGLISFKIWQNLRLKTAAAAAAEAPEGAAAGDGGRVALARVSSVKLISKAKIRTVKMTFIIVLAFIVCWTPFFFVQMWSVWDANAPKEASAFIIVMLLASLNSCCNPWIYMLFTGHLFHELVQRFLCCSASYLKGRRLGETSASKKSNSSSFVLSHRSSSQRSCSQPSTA
Nucleotide-binding oligomerization domain-containing protein 2, sequence (Q9HC29 whole entry, the tested form may be a part): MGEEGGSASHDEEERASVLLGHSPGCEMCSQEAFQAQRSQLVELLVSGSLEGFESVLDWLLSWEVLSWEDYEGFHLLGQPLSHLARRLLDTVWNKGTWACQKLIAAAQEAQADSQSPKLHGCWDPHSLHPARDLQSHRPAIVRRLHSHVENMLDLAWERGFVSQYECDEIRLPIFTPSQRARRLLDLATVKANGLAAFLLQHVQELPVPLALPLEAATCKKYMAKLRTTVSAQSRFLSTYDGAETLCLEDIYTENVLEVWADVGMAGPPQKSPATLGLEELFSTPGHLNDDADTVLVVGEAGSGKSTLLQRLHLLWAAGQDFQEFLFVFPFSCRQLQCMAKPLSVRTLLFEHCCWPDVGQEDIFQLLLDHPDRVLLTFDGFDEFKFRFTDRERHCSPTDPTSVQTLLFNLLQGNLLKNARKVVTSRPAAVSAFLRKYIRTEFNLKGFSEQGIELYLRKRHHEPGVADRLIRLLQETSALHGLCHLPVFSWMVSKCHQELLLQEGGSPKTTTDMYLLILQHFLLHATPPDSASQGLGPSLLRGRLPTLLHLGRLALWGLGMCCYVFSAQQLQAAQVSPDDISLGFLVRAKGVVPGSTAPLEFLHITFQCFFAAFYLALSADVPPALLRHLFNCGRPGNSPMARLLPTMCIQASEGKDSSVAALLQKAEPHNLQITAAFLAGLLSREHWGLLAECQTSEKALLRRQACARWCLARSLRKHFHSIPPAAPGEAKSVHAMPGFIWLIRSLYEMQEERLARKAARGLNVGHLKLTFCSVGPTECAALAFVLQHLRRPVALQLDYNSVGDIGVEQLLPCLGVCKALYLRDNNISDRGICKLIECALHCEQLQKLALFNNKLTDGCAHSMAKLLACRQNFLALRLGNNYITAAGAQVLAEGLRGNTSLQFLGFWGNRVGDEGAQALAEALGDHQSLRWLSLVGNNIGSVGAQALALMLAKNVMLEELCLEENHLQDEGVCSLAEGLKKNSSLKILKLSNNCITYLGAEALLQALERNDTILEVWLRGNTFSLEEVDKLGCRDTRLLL
Neuropeptides B/W receptor type 1, sequence (P48145 whole entry): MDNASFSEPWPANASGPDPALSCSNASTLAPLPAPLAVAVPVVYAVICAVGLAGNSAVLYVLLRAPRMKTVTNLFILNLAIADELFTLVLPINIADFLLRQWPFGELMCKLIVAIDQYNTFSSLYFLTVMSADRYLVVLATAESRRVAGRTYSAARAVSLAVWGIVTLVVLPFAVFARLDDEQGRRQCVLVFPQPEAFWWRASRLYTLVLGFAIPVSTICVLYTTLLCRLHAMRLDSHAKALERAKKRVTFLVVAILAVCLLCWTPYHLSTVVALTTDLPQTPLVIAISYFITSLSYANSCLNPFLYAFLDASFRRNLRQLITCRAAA

With `Cc1ccccc1-n1c(SC/C(O)=C(\C#N)c2nc3ccccc3[nH]2)nnc1-c1ccncc1` the IC50 [1] was > 50 µM (not active) and the IC50 [2] was 0.371 µM (not active).

With `CCOC(=O)N1CCN(S(=O)(=O)c2ccc(C(=O)N(CCCN(C)C)c3nc4ccc(CC)cc4s3)cc2)CC1` the IC50 [3] was 14.2 µM (not active) and the IC50 [4] was 18.3 µM (not active).

For `CCOc1cccc(/C=N/NC(=O)c2ccc3c(c2)OCCO3)c1O`, the EC50 [5] was 1.49 µM (active), the EC50 [6] was 50.3 µM (active) and the EC50 [7] was 1.11 µM (active). The IC50 [8] was 12.5 µM (not active), the EC50 [9] was > 350 µM (not active) and the EC50 [10] was 2.77 µM (active). The CC50 [11] was 3.18 µM (active), the CC50 [12] was 4.3 µM (active) and the CC50 [13] was 6.58 µM (active). The IC50 [14] was > 50 µM (active) and the AC50 [15] was 3.01 µM (active).

For `Oc1ccc(Cc2ccc(O)cc2)cc1`, the IC50 [16] was 70.1 µM (active).

With `Oc1ccc(Cl)cc1CNCc1ccc(F)cc1` the EC50 [17] was 11 µM (not active) and the EC50 [18] was 15.5 µM (not active).

In the case of `O=C(Nc1ccccc1)Nc1nc(-c2ccccc2)cs1`, the IC50 [19] is reported as > 17 µM (not active).

In the case of `CC(NCc1ccc(N(C)C)cc1)C1CC2CCC1C2` (configuration not stated), the IC50 [20] is reported as > 79.4 µM (not active).

For `CC1CCCN(C(C(=O)Nc2ccc3c(c2)OCO3)c2ccccc2)C1` (configuration not stated), the IC50 [21] was 0.162 µM (active).

With `O=C(Nc1sc2c(c1C(=O)O)CCCC2)c1cccs1` the IC50 [22] was > 20 µM (inactive), the IC50 [23] was > 20 µM (inactive) and the IC50 [24] was > 20 µM (inactive). The IC50 [25] was > 20 µM (inactive).

For `CC(=O)OCC1OC(c2ccc3c(c2)OCO3)C=CC1OC(C)=O` (configuration not stated), the AC50 [26] was 7.94 µM (inconclusive) and the AC50 [27] was 5.01 µM (inconclusive).
